Tests used:
[1] = target: KIT(V559D,V654A) (Homo sapiens, UniProt P10721, V559D/V654A); assay: biochemical; conditions: read-out: %Ctrl @ 2000nM
[2] = target: CSNK1G2 (Homo sapiens, UniProt P78368); assay: biochemical; conditions: read-out: %Ctrl @ 2000nM
[3] = target: ABL1(F317I)-phosphorylated (Homo sapiens, UniProt P00519, F317I); assay: biochemical; conditions: read-out: %Ctrl @ 2000nM
[4] = target: PIK3CA(M1043I) (Homo sapiens, UniProt P42336, M1043I); assay: biochemical; conditions: read-out: %Ctrl @ 2000nM
[5] = target: PHKG2 (Homo sapiens, UniProt P15735); assay: biochemical; conditions: read-out: %Ctrl @ 2000nM
[6] = target: BMX (Homo sapiens, UniProt P51813); assay: biochemical; conditions: read-out: %Ctrl @ 2000nM
[7] = tested on: MCF10A cells; conditions: high concentrations
[8] = target: CAMKK1 (Homo sapiens, UniProt Q8N5S9); assay: biochemical; conditions: read-out: %Ctrl @ 2000nM
[9] = target: EGFR(G719S) (Homo sapiens, UniProt P00533, G719S); assay: biochemical; conditions: read-out: %Ctrl @ 2000nM
[10] = target: RSK1(Kin.Dom.2-C-terminal) (Homo sapiens, UniProt Q15418); assay: biochemical; conditions: read-out: %Ctrl @ 2000nM
[11] = target: ERK3 (Homo sapiens, UniProt Q16659); assay: biochemical; conditions: read-out: %Ctrl @ 2000nM
[12] = target: PKAC-alpha (Homo sapiens, UniProt P17612); assay: biochemical; conditions: read-out: %Ctrl @ 2000nM
[13] = target: PIP5K1C (Homo sapiens, UniProt O60331); assay: biochemical; conditions: read-out: %Ctrl @ 2000nM
[14] = target: ERBB3 (Homo sapiens, UniProt P21860); assay: biochemical; conditions: read-out: %Ctrl @ 2000nM
[15] = target: ABL1-nonphosphorylated (Homo sapiens, UniProt P00519); assay: biochemical; conditions: read-out: %Ctrl @ 2000nM
[16] = target: YANK1 (Homo sapiens, UniProt Q8WU08); assay: biochemical; conditions: read-out: %Ctrl @ 2000nM
[17] = target: MEK5 (Homo sapiens, UniProt Q13163); assay: biochemical; conditions: read-out: %Ctrl @ 2000nM
[18] = target: VRK2 (Homo sapiens, UniProt Q86Y07); assay: biochemical; conditions: read-out: %Ctrl @ 2000nM
[19] = target: PIK3CA(H1047L) (Homo sapiens, UniProt P42336, H1047L); assay: biochemical; conditions: read-out: %Ctrl @ 2000nM
[20] = target: RET (Homo sapiens, UniProt P07949); assay: biochemical; conditions: read-out: %Ctrl @ 2000nM
[21] = target: p38-beta (Homo sapiens, UniProt Q15759); assay: biochemical; conditions: read-out: %Ctrl @ 2000nM
[22] = target: HIPK3 (Homo sapiens, UniProt Q9H422); assay: biochemical; conditions: read-out: %Ctrl @ 2000nM
[23] = target: WEE2 (Homo sapiens, UniProt P0C1S8); assay: biochemical; conditions: read-out: %Ctrl @ 2000nM
[24] = target: MKNK2 (Homo sapiens, UniProt Q9HBH9); assay: biochemical; conditions: read-out: %Ctrl @ 2000nM
[25] = target: RET(M918T) (Homo sapiens, UniProt P07949, M918T); assay: biochemical; conditions: read-out: %Ctrl @ 2000nM
[26] = target: MEK6 (Homo sapiens, UniProt P52564); assay: biochemical; conditions: read-out: %Ctrl @ 2000nM
[27] = target: PRKG2 (Homo sapiens, UniProt Q13237); assay: biochemical; conditions: read-out: %Ctrl @ 2000nM
[28] = target: CDKL2 (Homo sapiens, UniProt Q92772); assay: biochemical; conditions: read-out: %Ctrl @ 2000nM
[29] = target: NDR2 (Homo sapiens, UniProt Q9Y2H1); assay: biochemical; conditions: read-out: %Ctrl @ 2000nM
[30] = target: RIPK5 (Homo sapiens, UniProt Q6XUX3); assay: biochemical; conditions: read-out: %Ctrl @ 2000nM
[31] = target: EPHA5 (Homo sapiens, UniProt P54756); assay: biochemical; conditions: read-out: %Ctrl @ 2000nM
[32] = target: HPK1 (Homo sapiens, UniProt Q92918); assay: biochemical; conditions: read-out: %Ctrl @ 2000nM
[33] = target: SRPK2 (Homo sapiens, UniProt P78362); assay: biochemical; conditions: read-out: %Ctrl @ 2000nM
[34] = target: JNK2 (Homo sapiens, UniProt P45984); assay: biochemical; conditions: read-out: %Ctrl @ 2000nM
[35] = target: MAP3K3 (Homo sapiens, UniProt Q99759); assay: biochemical; conditions: read-out: %Ctrl @ 2000nM
[36] = target: CIT (Homo sapiens, UniProt O14578); assay: biochemical; conditions: read-out: %Ctrl @ 2000nM
[37] = target: CASK (Homo sapiens, UniProt O14936); assay: biochemical; conditions: read-out: %Ctrl @ 2000nM
[38] = target: EGFR(T790M) (Homo sapiens, UniProt P00533, T790M); assay: biochemical; conditions: read-out: %Ctrl @ 2000nM
[39] = target: ZAK (Homo sapiens, UniProt Q9NYL2); assay: biochemical; conditions: read-out: %Ctrl @ 2000nM
[40] = target: DCAMKL3 (Homo sapiens, UniProt Q9C098); assay: biochemical; conditions: read-out: %Ctrl @ 2000nM
[41] = target: ABL1(F317L)-phosphorylated (Homo sapiens, UniProt P00519, F317L); assay: biochemical; conditions: read-out: %Ctrl @ 2000nM
[42] = target: BRSK2 (Homo sapiens, UniProt Q8IWQ3); assay: biochemical; conditions: read-out: %Ctrl @ 2000nM

Chain of JNK2 (P45984 whole entry): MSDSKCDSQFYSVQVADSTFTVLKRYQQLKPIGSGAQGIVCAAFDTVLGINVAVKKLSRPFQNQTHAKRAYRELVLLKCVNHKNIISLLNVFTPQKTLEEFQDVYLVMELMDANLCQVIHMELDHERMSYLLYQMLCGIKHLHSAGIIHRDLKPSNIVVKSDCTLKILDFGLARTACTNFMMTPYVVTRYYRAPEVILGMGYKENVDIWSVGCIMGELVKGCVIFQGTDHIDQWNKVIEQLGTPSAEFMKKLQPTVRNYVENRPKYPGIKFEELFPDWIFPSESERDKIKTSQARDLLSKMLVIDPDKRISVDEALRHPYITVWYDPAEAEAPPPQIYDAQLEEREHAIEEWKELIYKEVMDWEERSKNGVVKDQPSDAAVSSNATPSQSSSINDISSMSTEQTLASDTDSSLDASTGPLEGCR
Chain of MEK6 (P52564 whole entry): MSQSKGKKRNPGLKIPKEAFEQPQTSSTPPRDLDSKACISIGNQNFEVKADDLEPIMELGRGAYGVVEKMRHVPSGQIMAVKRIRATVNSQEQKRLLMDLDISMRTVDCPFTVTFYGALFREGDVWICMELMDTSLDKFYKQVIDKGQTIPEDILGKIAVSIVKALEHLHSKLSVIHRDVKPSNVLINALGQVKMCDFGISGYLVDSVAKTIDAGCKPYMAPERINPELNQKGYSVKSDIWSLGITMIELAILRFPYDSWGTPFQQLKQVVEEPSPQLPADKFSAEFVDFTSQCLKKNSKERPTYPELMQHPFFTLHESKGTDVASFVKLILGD
Chain of MEK5 (Q13163 whole entry): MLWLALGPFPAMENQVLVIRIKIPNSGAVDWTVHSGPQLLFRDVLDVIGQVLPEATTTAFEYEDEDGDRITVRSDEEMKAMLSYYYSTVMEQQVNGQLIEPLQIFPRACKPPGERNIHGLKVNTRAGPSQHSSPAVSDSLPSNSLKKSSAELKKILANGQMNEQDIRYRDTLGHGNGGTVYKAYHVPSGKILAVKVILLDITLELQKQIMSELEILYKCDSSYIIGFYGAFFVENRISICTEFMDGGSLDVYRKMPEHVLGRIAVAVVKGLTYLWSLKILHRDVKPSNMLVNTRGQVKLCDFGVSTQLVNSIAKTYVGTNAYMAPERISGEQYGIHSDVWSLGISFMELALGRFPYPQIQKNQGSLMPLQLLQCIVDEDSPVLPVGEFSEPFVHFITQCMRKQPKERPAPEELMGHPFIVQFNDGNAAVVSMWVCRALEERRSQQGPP
Chain of ZAK (Q9NYL2 whole entry): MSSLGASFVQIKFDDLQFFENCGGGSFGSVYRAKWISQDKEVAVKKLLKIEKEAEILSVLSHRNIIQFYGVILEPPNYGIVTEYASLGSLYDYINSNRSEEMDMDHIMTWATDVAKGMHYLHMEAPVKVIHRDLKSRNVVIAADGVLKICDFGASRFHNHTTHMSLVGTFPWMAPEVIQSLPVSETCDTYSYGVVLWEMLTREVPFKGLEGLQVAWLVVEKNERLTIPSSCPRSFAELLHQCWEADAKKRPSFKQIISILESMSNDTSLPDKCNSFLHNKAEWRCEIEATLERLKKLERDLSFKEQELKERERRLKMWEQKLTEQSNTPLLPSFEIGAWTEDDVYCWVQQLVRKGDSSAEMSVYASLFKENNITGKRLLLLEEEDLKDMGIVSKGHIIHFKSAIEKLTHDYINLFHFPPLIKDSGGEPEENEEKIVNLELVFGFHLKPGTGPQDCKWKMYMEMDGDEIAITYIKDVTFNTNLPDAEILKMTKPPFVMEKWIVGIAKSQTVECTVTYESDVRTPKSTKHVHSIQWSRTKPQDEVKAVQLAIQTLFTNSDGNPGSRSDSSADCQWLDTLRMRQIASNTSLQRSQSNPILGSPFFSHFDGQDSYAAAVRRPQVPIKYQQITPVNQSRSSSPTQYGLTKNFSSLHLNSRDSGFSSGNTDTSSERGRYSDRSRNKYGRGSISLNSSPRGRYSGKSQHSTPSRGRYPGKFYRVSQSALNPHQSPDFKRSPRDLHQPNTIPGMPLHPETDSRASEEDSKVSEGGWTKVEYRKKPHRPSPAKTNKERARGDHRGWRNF
Chain of MKNK2 (Q9HBH9 whole entry): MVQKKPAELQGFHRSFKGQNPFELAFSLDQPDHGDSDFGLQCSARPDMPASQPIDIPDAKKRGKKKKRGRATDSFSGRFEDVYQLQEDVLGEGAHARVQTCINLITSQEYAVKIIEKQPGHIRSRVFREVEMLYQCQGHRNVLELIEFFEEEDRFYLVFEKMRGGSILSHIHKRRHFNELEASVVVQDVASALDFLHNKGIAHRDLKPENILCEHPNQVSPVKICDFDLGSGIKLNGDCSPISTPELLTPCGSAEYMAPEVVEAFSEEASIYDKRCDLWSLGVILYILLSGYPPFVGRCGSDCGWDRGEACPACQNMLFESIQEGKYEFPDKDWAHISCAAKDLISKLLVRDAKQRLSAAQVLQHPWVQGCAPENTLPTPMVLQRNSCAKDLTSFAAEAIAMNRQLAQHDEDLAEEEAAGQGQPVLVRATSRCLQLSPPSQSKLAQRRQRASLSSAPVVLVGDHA
Chain of WEE2 (P0C1S8 whole entry): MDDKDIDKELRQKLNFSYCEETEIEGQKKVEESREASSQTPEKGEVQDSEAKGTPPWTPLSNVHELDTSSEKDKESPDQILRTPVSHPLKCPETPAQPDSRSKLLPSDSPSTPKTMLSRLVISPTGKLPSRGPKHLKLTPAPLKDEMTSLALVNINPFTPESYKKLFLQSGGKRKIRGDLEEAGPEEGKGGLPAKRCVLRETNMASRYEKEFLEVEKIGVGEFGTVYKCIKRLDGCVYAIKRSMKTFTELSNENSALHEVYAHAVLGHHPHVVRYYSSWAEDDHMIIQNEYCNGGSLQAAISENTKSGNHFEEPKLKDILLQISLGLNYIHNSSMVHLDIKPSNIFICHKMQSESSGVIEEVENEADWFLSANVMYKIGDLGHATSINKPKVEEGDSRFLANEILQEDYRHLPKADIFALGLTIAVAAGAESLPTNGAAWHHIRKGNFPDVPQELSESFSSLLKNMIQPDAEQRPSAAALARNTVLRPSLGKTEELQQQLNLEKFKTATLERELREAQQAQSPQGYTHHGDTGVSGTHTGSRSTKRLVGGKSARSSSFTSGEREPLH
Chain of PIK3CA(M1043I) (P42336 whole entry M1043I): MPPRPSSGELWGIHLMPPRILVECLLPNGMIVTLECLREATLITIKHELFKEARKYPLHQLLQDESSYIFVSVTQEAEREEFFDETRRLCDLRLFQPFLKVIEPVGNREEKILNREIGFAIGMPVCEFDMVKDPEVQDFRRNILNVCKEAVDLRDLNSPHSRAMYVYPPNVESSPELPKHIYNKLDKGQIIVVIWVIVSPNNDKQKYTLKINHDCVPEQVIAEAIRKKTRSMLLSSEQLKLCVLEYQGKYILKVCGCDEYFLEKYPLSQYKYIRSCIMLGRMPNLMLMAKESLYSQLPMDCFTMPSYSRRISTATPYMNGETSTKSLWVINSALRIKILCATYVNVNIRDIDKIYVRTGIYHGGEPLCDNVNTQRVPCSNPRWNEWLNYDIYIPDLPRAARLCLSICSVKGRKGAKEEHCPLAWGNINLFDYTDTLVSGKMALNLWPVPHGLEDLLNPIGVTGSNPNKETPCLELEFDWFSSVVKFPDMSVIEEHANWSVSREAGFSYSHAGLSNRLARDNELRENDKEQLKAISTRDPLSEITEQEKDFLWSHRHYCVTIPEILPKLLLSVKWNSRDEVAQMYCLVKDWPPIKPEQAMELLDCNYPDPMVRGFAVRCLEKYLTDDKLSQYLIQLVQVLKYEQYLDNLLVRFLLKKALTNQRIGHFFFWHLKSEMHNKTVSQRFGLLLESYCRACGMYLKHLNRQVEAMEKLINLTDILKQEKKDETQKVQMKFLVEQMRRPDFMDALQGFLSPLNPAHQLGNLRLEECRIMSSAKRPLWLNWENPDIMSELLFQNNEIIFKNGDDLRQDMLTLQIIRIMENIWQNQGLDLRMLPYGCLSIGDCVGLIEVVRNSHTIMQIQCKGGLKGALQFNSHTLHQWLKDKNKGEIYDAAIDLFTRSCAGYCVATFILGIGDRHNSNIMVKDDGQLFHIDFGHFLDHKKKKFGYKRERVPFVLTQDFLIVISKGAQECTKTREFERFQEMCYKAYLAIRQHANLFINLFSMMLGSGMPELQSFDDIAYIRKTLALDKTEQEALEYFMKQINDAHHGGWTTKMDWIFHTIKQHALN
Chain of PRKG2 (Q13237 whole entry): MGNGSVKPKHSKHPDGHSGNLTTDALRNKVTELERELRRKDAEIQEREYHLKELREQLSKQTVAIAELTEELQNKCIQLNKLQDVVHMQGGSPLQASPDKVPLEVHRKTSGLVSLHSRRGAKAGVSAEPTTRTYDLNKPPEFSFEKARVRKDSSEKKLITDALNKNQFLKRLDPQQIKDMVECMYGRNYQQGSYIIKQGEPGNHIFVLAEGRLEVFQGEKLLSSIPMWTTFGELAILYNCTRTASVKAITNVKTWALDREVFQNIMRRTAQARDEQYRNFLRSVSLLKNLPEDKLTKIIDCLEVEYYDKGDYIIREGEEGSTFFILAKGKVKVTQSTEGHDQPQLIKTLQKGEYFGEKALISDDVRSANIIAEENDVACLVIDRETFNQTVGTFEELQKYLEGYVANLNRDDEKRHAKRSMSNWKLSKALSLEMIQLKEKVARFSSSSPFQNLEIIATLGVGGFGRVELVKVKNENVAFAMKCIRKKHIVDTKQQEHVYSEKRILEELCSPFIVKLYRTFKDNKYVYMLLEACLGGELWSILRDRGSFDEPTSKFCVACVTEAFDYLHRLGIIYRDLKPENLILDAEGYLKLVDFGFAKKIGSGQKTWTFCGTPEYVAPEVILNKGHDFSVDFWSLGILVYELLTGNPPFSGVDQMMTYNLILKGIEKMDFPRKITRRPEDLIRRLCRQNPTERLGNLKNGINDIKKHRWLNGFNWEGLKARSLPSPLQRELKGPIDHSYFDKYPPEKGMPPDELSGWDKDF
Chain of PIK3CA(H1047L) (P42336 whole entry H1047L): as the sequence (P42336 whole entry M1043I) above, with I1043M, H1047L counted along it

CC(C)COC(=O)c1[nH]c2ccc(F)cc2c1-c1cn(CC2CCN(CCNS(=O)(=O)c3ccc(CC(C)C)cc3)CC2)nn1 [AB668, isobutyl 5-fluoro-3-(1-((1-(2-((4-isobutylphenyl)sulfonamido)ethyl)piperidin-4-yl)methyl)-1H-1,2,3-triazol-4-yl)-1H-indole-2-carboxylate]
remaining activity at 2 µM [1]: 100% | remaining activity at 2 µM [2]: 75% | remaining activity at 2 µM [3]: 96% | remaining activity at 2 µM [4]: 100% | remaining activity at 2 µM [5]: 88% | remaining activity at 2 µM [6]: 85% | cytotoxicity [7]: no cytotoxicity | remaining activity at 2 µM [8]: 88% | remaining activity at 2 µM [9]: 68% | remaining activity at 2 µM [10]: 100% | remaining activity at 2 µM [11]: 91% | remaining activity at 2 µM [12]: 84% | remaining activity at 2 µM [13]: 87% | remaining activity at 2 µM [14]: 94% | remaining activity at 2 µM [15]: 96% | remaining activity at 2 µM [16]: 78% | remaining activity at 2 µM [17]: 100% | remaining activity at 2 µM [18]: 78% | remaining activity at 2 µM [19]: 98% | remaining activity at 2 µM [20]: 87% | remaining activity at 2 µM [21]: 74% | remaining activity at 2 µM [22]: 98% | remaining activity at 2 µM [23]: 95% | remaining activity at 2 µM [24]: 100% | remaining activity at 2 µM [25]: 94% | remaining activity at 2 µM [26]: 83% | remaining activity at 2 µM [27]: 97% | remaining activity at 2 µM [28]: 84% | remaining activity at 2 µM [29]: 100% | remaining activity at 2 µM [30]: 95% | remaining activity at 2 µM [31]: 100% | remaining activity at 2 µM [32]: 92% | remaining activity at 2 µM [33]: 98% | remaining activity at 2 µM [34]: 92% | remaining activity at 2 µM [35]: 100% | remaining activity at 2 µM [36]: 88% | remaining activity at 2 µM [37]: 97% | remaining activity at 2 µM [38]: 89% | remaining activity at 2 µM [39]: 100% | remaining activity at 2 µM [40]: 91% | remaining activity at 2 µM [41]: 78% | remaining activity at 2 µM [42]: 79%
